Source: ChEMBL document CHEMBL1201862, “PubChem BioAssay data set” (2004)
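Five compound concentrations were applied to cells in 96-well plates for 48 hours; endpoints were derived by simple linear interpolation of the resulting dose-response curve. Abbreviation: GI50, concentration required for 50% inhibition of growth.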 Calls of active or inactive are those of the source. Rule as the data show it: active = GI50 up to about 1.1 µM and inactive = higher.

Tests used:
Assay in all cases: inhibition of tumour cell growth, NCI panel, 48 h
RPMI-8226 = system: RPMI-8226
PC-3 = system: PC-3
HOP-62 = system: HOP-62
HCT-15 = system: HCT-15
SF-295 = system: SF-295
786-0 = system: 786-0
HL-60 = system: HL-60
MCF7 = system: MCF7
HT-29 = system: HT-29
U-251 = system: U-251
DU-145 = system: DU-145
COLO 205 = system: COLO 205
SR = system: SR
SN12C = system: SN12C
K562 = system: K562
CCRF-CEM = system: CCRF-CEM
NCI-H460 = system: NCI-H460
SNB-19 = system: SNB-19
NCI/ADR-RES = system: NCI/ADR-RES
LOX IMVI = system: LOX IMVI

SMILES	GI50 (RPMI-8226)	GI50 (PC-3)	GI50 (HOP-62)	GI50 (HCT-15) [µM]	GI50 (SF-295)	GI50 (786-0)	GI50 (HL-60)	GI50 (MCF7)	GI50 (HT-29)	GI50 (U-251)	GI50 (DU-145)	GI50 (COLO 205)	GI50 (SR)	GI50 (SN12C)	GI50 (K562)	GI50 (CCRF-CEM)	GI50 (NCI-H460)	GI50 (SNB-19)	GI50 (NCI/ADR-RES)	GI50 (LOX IMVI)
CC(=O)c1ccc2c(c1)CC1(C2)Cc2cc3c(cc2C1)C(=O)CC3 (stereo not given)	0.345 µM (active)	3.13 µM (inactive)	2.67 µM (inactive)	1.08	0.594 µM (active)	3.64 µM (inactive)	0.76 µM (active)	0.429 µM (active)	1.07 µM (active)	1.8 µM (inactive)	1.4 µM (inactive)	0.344 µM (active)	0.322 µM (active)	4.25 µM (inactive)	0.521 µM (active)	0.65 µM (active)	0.453 µM (active)	1.67 µM (inactive)	1.57 µM (inactive)	6.37 µM (inactive)
c1cc(C[S+]2CCCC2)sc1C[S+]1CCCC1	> 100 µM (inactive)	> 100 µM (inactive)	> 100 µM (inactive)	> 100	> 100 µM (inactive)	> 100 µM (inactive)	> 100 µM (inactive)	> 100 µM (inactive)	> 100 µM (inactive)	> 100 µM (inactive)	> 100 µM (inactive)	> 100 µM (inactive)	> 100 µM (inactive)	> 100 µM (inactive)	> 100 µM (inactive)	> 100 µM (inactive)	> 100 µM (inactive)	> 100 µM (inactive)	> 100 µM (inactive)	> 100 µM (inactive)
C=C1CC(Cn2cc(C)c(=O)[nH]c2=O)(c2ccc(Cl)cc2)OC1=O (stereo not given)	0.414 µM (active)	3.08 µM (inactive)	15.8 µM (inactive)	0.867	9.64 µM (inactive)	1.56 µM (inactive)	0.863 µM (active)	0.933 µM (active)	1.69 µM (inactive)	16.2 µM (inactive)	4.65 µM (inactive)	1.42 µM (inactive)	1.17 µM (inactive)	7.05 µM (inactive)	0.673 µM (active)	0.855 µM (active)	15.8 µM (inactive)	23.1 µM (inactive)	3.98 µM (inactive)	1.56 µM (inactive)
CCOC(=O)/C(C(=O)c1ccc[nH]1)=C1/CCCN1C	> 100 µM (inactive)	> 100 µM (inactive)	> 100 µM (inactive)	> 100	> 100 µM (inactive)	> 100 µM (inactive)	> 100 µM (inactive)	> 100 µM (inactive)	> 100 µM (inactive)	> 100 µM (inactive)	> 100 µM (inactive)	> 100 µM (inactive)	> 100 µM (inactive)	> 100 µM (inactive)	> 100 µM (inactive)	> 100 µM (inactive)	> 100 µM (inactive)	> 100 µM (inactive)	> 100 µM (inactive)	> 100 µM (inactive)
CCN(C(=O)/C=C/c1ccco1)c1ccccc1	75.2 µM (inactive)	> 100 µM (inactive)	> 100 µM (inactive)	> 100	> 100 µM (inactive)	> 100 µM (inactive)	21.9 µM (inactive)	> 100 µM (inactive)	> 100 µM (inactive)	> 100 µM (inactive)	> 100 µM (inactive)	> 100 µM (inactive)	46.2 µM (inactive)	> 100 µM (inactive)	46.2 µM (inactive)	> 100 µM (inactive)	> 100 µM (inactive)	> 100 µM (inactive)	> 100 µM (inactive)	> 100 µM (inactive)
Cn1c2c(c3ccccc31)CCN1C(=O)CN(C(=O)C3CCCCC3)CC21 (stereo not given)	> 100 µM (inactive)	> 100 µM (inactive)	> 100 µM (inactive)	> 100	> 100 µM (inactive)	> 100 µM (inactive)	> 100 µM (inactive)	> 100 µM (inactive)	> 100 µM (inactive)	> 100 µM (inactive)	> 100 µM (inactive)	> 100 µM (inactive)	> 100 µM (inactive)	> 100 µM (inactive)	> 100 µM (inactive)	> 100 µM (inactive)	> 100 µM (inactive)	> 100 µM (inactive)	> 100 µM (inactive)	> 100 µM (inactive)
Cc1cccc2c(=O)c3c(O)cc4c(c3n(C)c12)C=CC(C)(C)O4	9.02 µM (inactive)	91.8 µM (inactive)	> 100 µM (inactive)	18.7	25.1 µM (inactive)	71.8 µM (inactive)	45.7 µM (inactive)	32.7 µM (inactive)	4.63 µM (inactive)	> 100 µM (inactive)	> 100 µM (inactive)	29 µM (inactive)	10.4 µM (inactive)	> 100 µM (inactive)	11.2 µM (inactive)	22.5 µM (inactive)	31.2 µM (inactive)	> 100 µM (inactive)	31.8 µM (inactive)	40.3 µM (inactive)
CCOC(=O)C(=Cc1ccccc1Br)C(=O)OCC	2.23 µM (inactive)	2.93 µM (inactive)	2.37 µM (inactive)	1.67	3.26 µM (inactive)	3.05 µM (inactive)	0.585 µM (active)	1.55 µM (inactive)	3.36 µM (inactive)	1.66 µM (inactive)	0.508 µM (active)	2.8 µM (inactive)	0.208 µM (active)	2.84 µM (inactive)	0.656 µM (active)	9.23 µM (inactive)	3.26 µM (inactive)	2.53 µM (inactive)	4.65 µM (inactive)	0.695 µM (active)
CC1CCN(CC(=O)N2c3ccccc3Sc3cc4ccccc4cc32)CC1	> 100 µM (inactive)	> 100 µM (inactive)	> 100 µM (inactive)	> 100	> 100 µM (inactive)	> 100 µM (inactive)	24.7 µM (inactive)	47.5 µM (inactive)	48 µM (inactive)	> 100 µM (inactive)	> 100 µM (inactive)	> 100 µM (inactive)	54.6 µM (inactive)	38.7 µM (inactive)	> 100 µM (inactive)	84.7 µM (inactive)	37.5 µM (inactive)	> 100 µM (inactive)	> 100 µM (inactive)	> 100 µM (inactive)
COc1ccc(C2c3cc4c(cc3OC(N3CCOCC3)C2C)OCO4)cc1 (stereo not given)	15.3 µM (inactive)	22.3 µM (inactive)	22.5 µM (inactive)	24.5	15.1 µM (inactive)	23.8 µM (inactive)	21.1 µM (inactive)	26.1 µM (inactive)	25.8 µM (inactive)	18 µM (inactive)	27.7 µM (inactive)	27.2 µM (inactive)	15.1 µM (inactive)	37.3 µM (inactive)	12.8 µM (inactive)	20.3 µM (inactive)	26.1 µM (inactive)	27.9 µM (inactive)	23.2 µM (inactive)	24.1 µM (inactive)
C=C1C(=O)O[C@@H]2CC(CO)=C([C@@H](C)CCCO)[C@@H](OC(=O)/C(C)=C\C)[C@H]12	5.05 µM (inactive)	16 µM (inactive)	34.9 µM (inactive)	13.7	16.9 µM (inactive)	14.8 µM (inactive)	1.83 µM (inactive)	10.2 µM (inactive)	12.9 µM (inactive)	15 µM (inactive)	8.71 µM (inactive)	14.5 µM (inactive)	1.88 µM (inactive)	16.2 µM (inactive)	5.22 µM (inactive)	2.29 µM (inactive)	9.98 µM (inactive)	20.1 µM (inactive)	20.2 µM (inactive)	8.39 µM (inactive)
O=C(NNS(=O)(=O)c1ccc(Br)cc1)c1ccc(Cl)cc1NC(=O)C12CC3CC(CC(C3)C1)C2	4.49 µM (inactive)	15.9 µM (inactive)	19.8 µM (inactive)	15.6	13.9 µM (inactive)	19.5 µM (inactive)	18.9 µM (inactive)	11.7 µM (inactive)	11.8 µM (inactive)	10.8 µM (inactive)	14.5 µM (inactive)	12 µM (inactive)	12.4 µM (inactive)	18.9 µM (inactive)	6.34 µM (inactive)	14.6 µM (inactive)	8.34 µM (inactive)	15.4 µM (inactive)	14.3 µM (inactive)	14.1 µM (inactive)
FC(F)(F)c1nc2nc(Cl)c(Cl)nc2n1CCCN1CCOCC1	23.4 µM (inactive)	61.2 µM (inactive)	> 100 µM (inactive)	29	> 100 µM (inactive)	> 100 µM (inactive)	19.1 µM (inactive)	53.1 µM (inactive)	66.8 µM (inactive)	65.9 µM (inactive)	24.9 µM (inactive)	54.6 µM (inactive)	0.489 µM (active)	84.9 µM (inactive)	14.2 µM (inactive)	24.7 µM (inactive)	52 µM (inactive)	51.4 µM (inactive)	> 100 µM (inactive)	30.4 µM (inactive)
N#CC(NC12CC3CC(CC(C3)C1)C2)c1ccc2c(c1)OCO2 (stereo not given)	> 100 µM (inactive)	> 100 µM (inactive)	> 100 µM (inactive)	> 100	> 100 µM (inactive)	> 100 µM (inactive)	> 100 µM (inactive)	> 100 µM (inactive)	> 100 µM (inactive)	> 100 µM (inactive)	> 100 µM (inactive)	> 100 µM (inactive)	> 100 µM (inactive)	> 100 µM (inactive)	> 100 µM (inactive)	> 100 µM (inactive)	> 100 µM (inactive)	> 100 µM (inactive)	> 100 µM (inactive)	> 100 µM (inactive)
